# According to patent US6894050B2, “5-HT receptor ligands and uses thereof” (Pfizer Inc., priority 2001, dated 2005):
# Where a name gives a salt, the structure may show the parent alone.
# Key:
# human 5HT2c receptor = target: T1, human 5HT2c receptor (Homo sapiens, UniProt P28335); experiment: 5HT2c Binding Procedure (competition binding against 3H-5HT); conditions: Swiss 3T3 mouse cells transfected with human 5HT2c receptor
# T1 construct: expressed in transfected cells; host or cells: Swiss 3T3 mouse cells
# T1 sequence (P28335 33-458): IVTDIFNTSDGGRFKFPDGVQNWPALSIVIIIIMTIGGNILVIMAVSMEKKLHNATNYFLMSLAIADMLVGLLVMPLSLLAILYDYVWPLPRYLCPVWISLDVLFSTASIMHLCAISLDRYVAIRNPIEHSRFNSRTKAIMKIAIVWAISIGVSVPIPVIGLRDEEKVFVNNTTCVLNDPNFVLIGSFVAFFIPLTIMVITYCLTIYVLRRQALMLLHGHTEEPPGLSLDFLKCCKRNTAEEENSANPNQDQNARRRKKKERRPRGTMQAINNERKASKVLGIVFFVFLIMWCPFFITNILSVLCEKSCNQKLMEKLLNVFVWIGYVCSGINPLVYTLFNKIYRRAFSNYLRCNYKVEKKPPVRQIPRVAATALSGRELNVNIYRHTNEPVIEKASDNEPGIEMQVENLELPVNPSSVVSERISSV
# Protocol: Affinity of compounds at the serotonin 5HT2c binding site was determined by competition binding in Swiss 3T3 mouse cells (available from the American Type Culture Collection (ATCC), Manassas, Va.) transfected with the human 5HT2c receptor against 3H-5HT. The method was adapted from Roth et al., J. of Pharm. And Exp. Therap., 260(3), 1362-1365 (1992). Cells were grown in DMEM high glucose medium, harvested, homogenized, centrifuged, and resuspended in 50 mM Tris-HCL. They were incubated at 37° C. for 15 minutes, centrifuged, and then resuspended into assay buffer (50 mM Tris-HCl, 4 mM CaCl2, 0.1% ascorbic acid, and 100 μM pargyline at pH 7.7) at 100 volumes per gram. Assay tubes contained 25 μL of 10 nM ^3H-5HT (1 nM final conc.), and 25 μl of vehicle (assay buffer), blank (10 μM mianserin), or test compound (10× final volume). 200 μl of tissue homogenate was added to each tube, vortexed, and incubated for 30 minutes at 37° C. Samples were then rapidly filtered under vacuum with a Skatron™ cell harvester (available from Molecular Devices Corporation, Sunnyvale, Calif.) using GF/B filters presoaked in 0.5% polyethyleneimine (PEI), and washed with 2×5 mL cold 50 mM Tris-HCl. Filter mats were removed and counted in a Wallac Betaplate counter (available from PerkinElmer Life Sciences, Gaithersburg, Md.). […]
# conscious male rat = experiment: Intracavernosal pressure (ICP) by telemetric recording in the conscious male rat; format: in vivo
# Source text: ICP Protocol: Intra cavernosal pressure (ICP) can be measured in the conscious rat by means of telemetric recording. A catheter is surgically implanted into the corpus cavernosum. The end of the catheter is linked to a device, which senses, processes, and transmits information digitally from within the animal. A receiver converts the radio-frequency signal from the implant to a digital pulse stream that is readable by a data collection system. The PC-based system collects telemetred data from the animal.
# Surgery:—Induce and maintain general anaesthesia using 5% Isoflurane® in a carrier gas of 0.5 L/min oxygen and 1 L/min nitrous oxide to induce anaesthesia, reducing to 2% Isoflurane for maintenance anaesthesia. Administer 5 mg/kg subcutaneously (s.c.) Carprofen (Rimadyl® Large Animal Injection, 50 mg/ml, Pfizer Animal Health) at induction of anaesthesia, at end of day of surgery and on the morning of first day post-surgery to minimise pain and discomfort.
# Implantation of corpus cavernosal probe:—Shave the skin of the ventral abdomen and extend to include the area around the penis and ventral scrotum. Clean and disinfect the shaved area. Place the rat in dorsal recumbency. Make a mid-line incision from the external base of the penis, running caudally for approximately 2 cm. Locate and expose the internal structure of the penis and identify the corpus cavernosum. Make a mid-line laparotomy, approximately 4 cm in length to access the abdominal cavity. Pierce the abdominal wall via the caudal incision with a suitable trocar and cannula, taking care not to damage any internal organs. Place the implant body in the abdominal cavity with the catheter orientated caudally and pass the catheter tip through the body wall via the preplaced cannula. Implant used is model TA11PA-C40, 8 mm catheter, with modified 3 mm tip (Data Sciences International Inc.). Secure the implant body to the abdominal wall using non-absorbable sutures and partially close the abdominal incision. Reflect the tip of the penis cranially and retract the caudal incision to optimise the surgical field. Carefully isolate approximately 10 mm of the internal structure of the penis from the surrounding tissue. Carefully reflect the corpus spongiosum to one side to give access to the corpus cavernosum. Access the corpus cavernosum using a modified over-the-needle catheter to puncture the tunica. Introduce the catheter tip via the preplaced catheter and advance until fully inserted. Carefully remove the access catheter and apply a suitable tissue adhesive to the insertion site. Observe for leakage. Close the subcutaneous fat layer in the caudal incision before closing with an appropriate absorbable suture. Instil approximately 5 ml of warm saline through the abdominal incision and complete closure of the mid-line incision. Close the skin incision with an appropriate absorbable suture.
# Postoperative care:—Measure food and water intake and monitor bodyweight daily for at least 7 days post surgery, then 2-3 times weekly. Give Lectade® (Pfizer Animal Health) in drinking water for 3 days post surgery. House rats singly, and transfer to reverse light/dark conditions 5 days post surgery. Named Veterinary Surgeon (or Deputy) to issue a certificate of fitness to continue 2 days post surgery. Start using rats experimentally 7 days post surgery.
# Experimental Procedure:—Perform experiment in room with reverse light/dark conditions. […] Take baseline reading of intra cavernosal pressure (ICP) for approximately 5 minutes. […]
# [1] = test system: anaesthetised rabbit model of erection; experiment: Penile ICP in anaesthetised rabbit model of erection, combination with PDE5 inhibitor; format: in vivo; conditions: 5-10 mg/kg s.c. with selective PDE5 inhibitor 1 mg/kg i.v.
# Protocol: The effects of concomitant administration of compound(s) of formula (I) in combination with a PDE5 inhibitor on the penile intracavernosal pressure (ICP) in an anaesthetised rabbit model of erection can be measured according to the following protocol.
# Male New Zealand rabbits (˜2.5 kg) are pre-medicated with a combination of Medetomidine (Domitor®) 0.5 ml/kg inramuscularly (i.m.), and Ketamine (Vetalar®) 0.25 ml/kg i.m. whilst maintaining oxygen intake via a face mask. The rabbits are tracheotomised using a Portex™ uncuffed endotracheal tube 3 ID (internal diameter), connected to ventilator and maintained at a ventilation rate of 30-40 breaths per minute, with an approximate tidal volume of 18-20 ml, and a maximum airway pressure of 10 cm H2O. Anaesthesia was then switched to Isoflurane® and ventilation continued with O2 at 2 liters/min. The right marginal ear vein was cannulated using a 23G or 24G catheter, and Lactated Ringer solution perfused at 0.5 ml/min. […]
# The left groin area of the rabbit was shaved and a vertical incision was made approximately 5 cm in length along the thigh. […] Systolic and diastolic pressures were measured, and the mean arterial pressure calculated using the formula (diastolic×2+systolic)÷3. Heart rate was measured via the pulse oxymeter and Po-ne-mah data acquisition software system (Ponemah Physiology Platform, Gould Instrument Systems Inc). […]
# rat 5HT2A receptor = target: T2, rat 5HT2A receptor (Rattus norvegicus, UniProt P14842); experiment: 5HT2A Binding Procedure (competition binding using 125I-DOI); conditions: NIH 3T3 mouse cells transfected with rat 5HT2A receptor, read-out: Ki values for 5HT2a binding (upper end of range)
# T2 construct: expressed in transfected cells; host or cells: NIH 3T3 mouse cells
# T2 sequence (P14842 whole entry): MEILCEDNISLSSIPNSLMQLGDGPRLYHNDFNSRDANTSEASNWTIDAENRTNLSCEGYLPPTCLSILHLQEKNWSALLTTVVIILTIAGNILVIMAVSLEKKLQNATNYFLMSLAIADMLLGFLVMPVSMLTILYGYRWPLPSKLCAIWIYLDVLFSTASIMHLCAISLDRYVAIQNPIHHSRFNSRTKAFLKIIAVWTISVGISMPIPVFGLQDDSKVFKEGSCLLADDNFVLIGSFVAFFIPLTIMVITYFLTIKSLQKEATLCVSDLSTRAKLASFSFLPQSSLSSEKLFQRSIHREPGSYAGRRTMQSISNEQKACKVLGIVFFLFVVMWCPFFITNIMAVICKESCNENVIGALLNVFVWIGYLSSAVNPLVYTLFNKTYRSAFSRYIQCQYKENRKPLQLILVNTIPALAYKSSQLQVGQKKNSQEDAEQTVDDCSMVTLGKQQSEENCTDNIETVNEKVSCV
# Protocol: Affinity of compounds at the serotonin 5HT2A binding site was determined by competition binding in NIH 3T3 mouse cells transfected with the rat 5HT2A receptor using 125I-DOI. The method was adapted from Leonhardt et al., Molecular Pharmacology, 42, 328-335 (1992). Frozen cell paste was homgenized in 50 mM tris-HCl buffer pH 7.4 containing 2 mM MgCl2 using a Polytron and centrifuged at 45000×g for ten minutes. The resulting pellet was resuspended in fresh ice-cold 50 mM tris-HCl buffer pH 7.4 containing 2 mM MgCl2 using a Polytron™ and centrifuged again at 45000×g for ten minutes. The final pellet was resuspended in 50 mM tris-HCl buffer pH 7.4 containing 2 mM MgCl2 at a concentraion of 5 mg/mL. Wells in a 96 well plate contained 25 μL of 0.7 nM 125I-DOI (70 pM final conc.), and 25 μL of vehicle (assay buffer), blank (10 μM cinanserin), or test compound (10× final volume). […] Filter mats were removed, dried and counted in a Wallac Betaplate counter. Concentration-response curves of the % inhibition of specific binding and log concentration by test compounds were used to determine the IC50 for each compound and the Ki value calculated based on the Cheng-Prusof equation (Ki=IC50/(1+(L/Kd)), where L is the concentration of the radioligand used in the binding assay and the Kd was based on previous saturation studies with the radioligand.
smiles,measurement,setting,value
"c1ccc(COc2cncc(N3CCNCC3)n2)nc1 [Example 1-AW, 6′-(Pyridin-2-ylmethoxy)-3,4,5,6-tetrahydro-2H-[1,2′]bipyrazinyl hydrochloride salt]",Ki,human 5HT2c receptor,586 nM
"Fc1ccc(F)c(COc2cncc(N3CCNCC3)n2)c1 [Example 1-M, 6′-(2,5-Difluoro-benzyloxy)-3,4,5,6-tetrahydro-2H-[1,2′]bipyrazinyl]",number of erectogenic events in a 15 minute test period,conscious male rat; 5 mg/kg s.c.,significantly increased
same,number of erectogenic events induced at 120 minutes after dosing,conscious male rat; 120 minutes after dosing,no difference
same,proerectile effects in the conscious rat,conscious male rat; conscious rat,induced proerectile effects
same,Number of erectogenic events @ 60 min,"conscious male rat; conscious rat, 5 mg/kg s.c., 15 minute period, 60 min post injection",1.5 ± 0.3
same,Number of erectogenic events @ 120 min,"conscious male rat; conscious rat, 5 mg/kg s.c., 15 minute period, 120 min post injection",1.3 ± 0.5
same,effects on ICP of concomitant administration with PDE5 inhibitor,[1],beneficial effects on ICP
"Cc1cccc(CNc2cncc(N3CCNCC3)n2)n1 [Example 4-R, (6-Methyl-pyridin-2-ylmethyl)-(3,4,5,6-tetrahydro-2H-[1,2′]bipyrazinyl-6′-yl)-amine fumarate salt]",Ki,rat 5HT2A receptor,1000 nM
